Several values for one entry are separate records, joined by “and”; a condition that tells them apart may be missing. Equal values may be shown once.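 All cell lines were grown in 96-well plates and treated with compound for 48 hours. GI50 is the concentration that inhibits growth by half. At the TGI there is no net growth.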
Tests used:
Experiment in all cases: NCI-60 cell line screen, 48 h
MOLT-4 leukemia = system: MOLT-4 leukemia
786-0 renal = system: 786-0 renal
NCI-H460 lung = system: NCI-H460 lung
OVCAR-4 ovarian = system: OVCAR-4 ovarian
HL-60(TB) leukemia = system: HL-60(TB) leukemia
COLO 205 colon = system: COLO 205 colon
SK-MEL-28 melanoma = system: SK-MEL-28 melanoma
SNB-19 CNS = system: SNB-19 CNS
DU-145 prostate = system: DU-145 prostate
BT-549 breast = system: BT-549 breast

Structure (SMILES)	GI50 (MOLT-4 leukemia) [nM]	TGI (MOLT-4 leukemia) [µM]	GI50 (786-0 renal) [µM]	TGI (786-0 renal) [µM]	GI50 (NCI-H460 lung) [µM]	TGI (NCI-H460 lung) [µM]	GI50 (OVCAR-4 ovarian) [µM]	TGI (OVCAR-4 ovarian) [µM]	GI50 (HL-60(TB) leukemia) [µM]	TGI (HL-60(TB) leukemia) [µM]	GI50 (COLO 205 colon) [µM]	TGI (COLO 205 colon) [µM]	GI50 (SK-MEL-28 melanoma)	TGI (SK-MEL-28 melanoma) [µM]	GI50 (SNB-19 CNS) [µM]	TGI (SNB-19 CNS) [µM]	GI50 (DU-145 prostate) [µM]	TGI (DU-145 prostate) [µM]	GI50 (BT-549 breast) [nM]	TGI (BT-549 breast) [µM]
c1cc[c]([Sn]([S]c2cccc3cccnc23)([S]c2cccc3cccnc23)[c]2ccccc2)cc1	101	0.542	0.212	0.502	0.228	0.643	0.163	0.336	0.172	0.563	0.136	0.298	0.196 µM	0.532	0.438	1.66	–	–	–	–
c1cc(-c2cn[nH]c2)cc(-c2cn[nH]c2)c1	–	> 100	–	> 100	–	> 100	–	> 100	–	66.6	–	> 100	–	> 100	–	> 100	–	–	–	–
CCCCCCC#CC#Cc1cccc(=O)o1	2310	> 21	0.991	2.72	8.14	47.9	9.12	23.1	–	–	9.5	20	3.22 µM	10.7	25.6	45.9	3.31	8.26	556	2.7
C=CCC(N[C@H](CO)c1ccccc1)c1cn(S(=O)(=O)c2ccc(C)cc2)c2ccccc12 (stereo partly specified)	15200	41.4	> 100	> 100	> 100	> 100	73.7	> 100	–	–	35.3	> 100	41.6 µM	> 100	60.8	> 100	26.7	67.2	20500	46.5
BrC1=CC=C2NCCCCCCN=C3C=CC(Br)=CC=C3NCCCCCCN=C2C=C1	–	> 25.5	–	> 25.5	–	> 25.5	–	> 25.5	–	> 25.5	–	–	–	> 25.5	–	> 25.5	–	–	–	–
Cc1cc(C)c2c(SCc3ccc(Cl)cc3Cl)nc(N)nc2n1	–	–	–	41.8	–	67.5	–	> 100	–	> 100	–	> 100	–	> 100	–	> 100	–	> 100	–	> 100
COc1ccc(C(=O)C(C(=O)C(=O)Nc2nccs2)c2ccc(OC)cc2)cc1 (stereo unspecified)	–	> 100	–	> 100	–	> 100	–	–	–	–	–	> 100	–	> 100	–	> 100	–	–	–	–
CCCCN(CCCC)C(=O)C(=O)C(C)C(=O)CC (stereo unspecified)	–	> 100	–	> 100	–	> 100	–	> 100	–	> 100	–	> 100	–	> 100	–	> 100	–	–	–	–
CCOc1ccc2ccc3cccnc3c2n1	–	–	–	> 100	–	> 100	–	> 100	–	> 100	–	> 100	–	> 100	–	> 100	–	> 100	–	> 100
O=C(O)c1cc(Cc2ccc(O)c(C(=O)O)c2)ccc1O (tested in a mixture with another compound)	2660	> 100	9.64	25.2	3.53	17.4	6.08	29.2	–	–	1.57	3.41	10.1 µM	26.8	12.8	28.2	12	27.8	3130	16.6
CC1CCP(=O)(c2ccccc2)CC1 (stereo unspecified)	–	> 100	–	> 100	–	> 100	–	> 100	–	> 100	–	> 100	–	> 100	–	> 100	–	–	–	–
CCc1c(O)c2c(c(O)c1C(C)=O)C(=O)c1c(cc(O)c(C(=O)O)c1C(=O)O)C2=O	–	> 100	–	> 100	–	> 100	–	> 100	–	–	–	> 100	–	> 100	–	> 100	–	> 100	–	> 100
C#C[C@H](CCCC)OC(=O)N[C@H](C)c1ccccc1	–	94.8	–	> 100	–	> 100	–	> 100	–	40.7	–	48.7	–	> 100	–	> 100	–	–	–	–
COc1ccc(/C=C/C(=O)c2cc3c(N)c(C(=O)Nc4ccccc4C)sc3nc2C)cc1	747	> 50	0.489	> 50	1.53	> 16.6	1.42	> 50	0.239	1.99	–	–	7.14 µM	> 50	1.15	> 50	0.431	> 23.4	568	> 50
Cc1cccc(C)c1NC(=O)CCC(=O)NC(N)=S	–	> 100	–	> 100	–	> 100	–	–	–	> 100	–	> 100	–	–	–	> 100	–	–	–	–
O=[N+]([O-])[O-].O=[N+]([O-])[O-].[Au].[Au].c1ccc([P-]c2ccccc2)cc1.c1ccc([P-]c2ccccc2)cc1	–	–	19.2	58.7	20.4	> 100	–	–	12	> 100	28	> 100	29.3 µM	75.6	> 100	> 100	–	–	–	–
CC(=O)c1cc2c(c3ccsc13)-c1ccccc1CC2	–	–	35.2	> 100	30.1	> 100	> 100	> 100	30.8	> 100	42	> 100	> 100 µM	> 100	> 100	> 100	23.5	> 100	37000	> 100
OCC#Cc1ccccc1C#Cc1ccc(C#Cc2ccccc2C#CCO)s1	–	–	19.3	37.7	24.7	91.5	26.4	> 100	43.4	> 100	17.9	48.5	20.5 µM	46.8	22.1	42.7	14.9	28.1	16800	33.8
O=C(O)/C(=C\c1ccccc1Cl)S(=O)(=O)c1ccccc1	–	> 100	–	> 100	–	> 100	–	> 100	–	> 100	–	> 100	–	–	–	> 100	–	–	–	–

Structure (SMILES)	GI50 (MOLT-4 leukemia) [nM]	TGI (MOLT-4 leukemia) [µM]	GI50 (786-0 renal) [µM]	TGI (786-0 renal) [µM]	GI50 (NCI-H460 lung) [µM]	TGI (NCI-H460 lung) [µM]	GI50 (OVCAR-4 ovarian) [µM]	TGI (OVCAR-4 ovarian) [µM]	GI50 (HL-60(TB) leukemia) [µM]	TGI (HL-60(TB) leukemia) [µM]	GI50 (COLO 205 colon) [µM]	TGI (COLO 205 colon) [µM]	GI50 (SK-MEL-28 melanoma)	TGI (SK-MEL-28 melanoma) [µM]	GI50 (SNB-19 CNS) [µM]	TGI (SNB-19 CNS) [µM]	GI50 (DU-145 prostate) [µM]	TGI (DU-145 prostate) [µM]	GI50 (BT-549 breast) [nM]	TGI (BT-549 breast) [µM]
CC(O)(CNS(=O)(=O)c1ccccc1)c1ccccc1 (stereo unspecified)	–	–	–	> 100	–	> 100	–	> 100	–	> 100	–	> 100	–	> 100	–	> 100	–	> 100	–	> 100
N#C/C(N)=C(\C#N)N=Cc1csc2ccccc12	4080	> 100	34.2	> 100	> 100	> 100	43.5	> 100	> 100	> 100	72.3	> 100	37.5 µM	> 100	27.7	71.9	29.6	> 100	–	–
O=[N+]([O-])/C=C\c1c[nH]c2ccc(OCc3ccccc3)cc12	–	> 100	–	4.56	–	25.1	–	–	–	8.78	–	13.4	–	9.47	–	16.5	–	22.2	–	–
N[C@@H]1CCCC[C@@H]1N.O=C([O-])CN(CP(=O)([O-])[O-])CP(=O)([O-])[O-].[Pt+2]	82500	> 100	> 100	> 100	> 100	> 100	> 100	> 100	> 100	> 100	50.1	> 100	> 100 µM	> 100	> 100	> 100	–	–	–	–
Cc1cc(C)cc(Nc2ccc([N+](=O)[O-])c(NCCN3CCOCC3)n2)c1	–	> 100	–	18.8	–	> 100	0.002	> 100	0.00261	0.00926	0.0023	0.00795	0.672 µM and 2.75 µM	> 100	–	–	–	> 100	–	> 100
COc1cc2c([C@@H](OC(=O)c3ccccc3)c3ccc4c(c3)OCO4)nccc2c(OC)c1OC	–	> 100	–	> 100	–	> 100	–	> 100	–	92.9	–	> 100	–	–	–	> 100	–	–	–	–
COC(=O)/C(=C/c1ccc(OC)cc1)NC(=O)c1ccccc1	–	> 100	–	> 100	–	> 100	–	> 100	–	> 100	–	–	–	> 100	–	> 100	–	–	–	–
Cc1[nH]nc2c1C(=O)C=C(N(CCO)c1ccccc1)C2=O	–	> 100	–	> 100	–	–	–	–	–	> 100	–	> 100	–	> 100	–	> 100	–	–	–	–
CC(=O)/C=C/C1=C(c2cccs2)c2ccccc2CC1	–	–	49.4	> 100	–	–	25.1	64.9	20.7	> 100	23.1	49	22.4 µM	52.2	–	–	42.8	> 100	32600	> 100
COc1cc(NCC2COc3c(ccc(OC)c3OC)C2=O)c([N+](=O)[O-])cc1OC (stereo unspecified)	–	> 100	–	> 100	–	> 100	–	> 100	–	> 100	–	> 100	–	> 100	–	> 100	–	> 100	–	–
O=C(CNc1ncco1)Nc1ccc(S(=O)(=O)c2ccc(NC(=O)CNc3ncco3)cc2)cc1	3130	8.45	3.95	18.3	2.02	4.29	–	–	4.72	21.3	1.75	3.55	2.38 µM	5.51	2.88	12.8	4.79	16.4	2090	6.26
Cc1ccc(NC(=O)C2C(=O)N(c3ccc(C)c(C)c3)C(=O)/C2=N\NC(N)=S)cc1C (stereo unspecified)	–	> 100	–	> 100	–	–	–	–	–	> 100	–	–	–	> 100	–	> 100	–	–	–	–
CNC(=O)OC1C(O[C@H]2C[C@H]3[C@@H]4CC=C5C[C@@H](O)CC[C@]5(C)[C@H]4CC[C@]3(C)[C@H]2[C@H](C)C(=O)CCC(C)C)OCC(O)C1OC1OCC(O)C(O)C1OC(=O)c1ccc(OC)cc1 (stereo partly specified)	8.24	0.0242	0.00341	0.652	0.0115	0.491	0.291	7.36	–	–	0.0579	0.361	0.0123 µM	0.0754	0.0204	3.89	0.0246	6.12	< 2.75	3.49
CCCCCC(O)(CCCCC)CCCCCCCCC1=C(O)c2[nH]c(=O)ccc2C(=O)C1=O	–	55.5	–	20.8	–	24	–	7.06	–	23.6	–	31.9	–	20.7	–	18.2	–	–	–	–
O=[N+]([O-])c1ccc(/C=C(/c2ccc([N+](=O)[O-])o2)S(=O)(=O)c2ccccc2)o1	–	–	–	14.7	–	60.1	–	15.5	–	8.67	–	4.67	–	33.6	–	35.7	–	28	–	36.2
CCCCCCNc1nc(N2CCOCC2)c2[nH]c(NCCCCCC)nc2n1	–	–	1.8	3.19	1.55	2.97	1.43	2.87	–	–	1.89	3.6	1.65 µM	3.01	1.8	3.41	1.51	2.83	1660	3.04
CC1(C)CC(=O)C(=[N+]=[N-])C(=O)C1	–	–	–	> 100	–	–	–	> 100	–	> 100	–	> 100	–	> 100	–	> 100	–	–	–	–
Cc1cc(C)n(C(=O)c2nn(-c3ccc(Cl)cc3)cc2O)n1	–	–	9.64	> 100	2.38	6.04	9.19	> 100	39.6	> 100	18.5	48.1	6.28 µM	> 100	3.6	> 100	6.23	> 100	2190	26.3

— PubChem BioAssay (NCI)
